The kinase profiling compilation of Christmann-Franck et al. (2016)

Experiments:
Test in all cases: radiometric filter-binding kinase assay
MINK1 (human) = MINK1 (human) (UniProt Q8N4C8); details: compound 100.0 µM
CHEK2 (human) = CHEK2 (human) (UniProt O96017); details: compound 100.0 µM
FGFR1 (human) = FGFR1 (human) (UniProt P11362); details: compound 100.0 µM
NTRK1 (human) = NTRK1 (human) (UniProt P04629); details: compound 100.0 µM
CSNK2A1 (human) = CSNK2A1 (human) (UniProt P68400); details: compound 100.0 µM
Sequence of CSNK2A1 (human) (P68400 whole entry, looked up): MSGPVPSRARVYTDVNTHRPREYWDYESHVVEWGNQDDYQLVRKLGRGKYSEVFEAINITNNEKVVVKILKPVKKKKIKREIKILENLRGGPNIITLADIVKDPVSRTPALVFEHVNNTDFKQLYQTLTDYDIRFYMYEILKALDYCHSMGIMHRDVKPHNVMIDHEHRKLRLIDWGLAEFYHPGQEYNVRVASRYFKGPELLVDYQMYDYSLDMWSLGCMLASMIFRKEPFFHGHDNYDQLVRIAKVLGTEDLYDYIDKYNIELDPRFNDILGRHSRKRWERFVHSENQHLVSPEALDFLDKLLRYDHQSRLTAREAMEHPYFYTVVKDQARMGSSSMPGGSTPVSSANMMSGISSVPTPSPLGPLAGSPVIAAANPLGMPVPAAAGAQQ

MAPK13 (human) = MAPK13 (human) (UniProt O15264); details: compound 100.0 µM
EPHB3 (human) = EPHB3 (human) (UniProt P54753); details: compound 100.0 µM
CDK2 CCNA2 (human) = CDK2 CCNA2 (human) (UniProt P20248+P24941); details: compound 100.0 µM
TTK (human) = TTK (human) (UniProt P33981); details: compound 100.0 µM
SRC (human) = SRC (human) (UniProt P12931); details: compound 100.0 µM
Sequence of SRC (human) (P12931 whole entry, looked up): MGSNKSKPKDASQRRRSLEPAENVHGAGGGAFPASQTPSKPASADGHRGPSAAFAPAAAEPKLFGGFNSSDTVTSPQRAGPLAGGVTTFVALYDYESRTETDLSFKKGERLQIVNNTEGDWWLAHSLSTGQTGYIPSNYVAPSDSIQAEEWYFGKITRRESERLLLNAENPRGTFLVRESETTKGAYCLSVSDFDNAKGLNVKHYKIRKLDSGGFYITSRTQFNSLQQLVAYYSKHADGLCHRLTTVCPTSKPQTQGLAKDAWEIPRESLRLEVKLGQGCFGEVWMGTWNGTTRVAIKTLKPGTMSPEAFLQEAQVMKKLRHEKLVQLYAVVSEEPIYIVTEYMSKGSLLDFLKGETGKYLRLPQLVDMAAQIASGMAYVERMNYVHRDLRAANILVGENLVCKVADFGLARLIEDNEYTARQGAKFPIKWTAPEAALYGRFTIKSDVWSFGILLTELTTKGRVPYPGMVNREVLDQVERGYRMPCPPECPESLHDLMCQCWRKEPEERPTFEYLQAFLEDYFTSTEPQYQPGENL

MYLK (human) = MYLK (human) (UniProt Q15746); details: compound 100.0 µM
MELK (human) = MELK (human) (UniProt Q14680); details: compound 100.0 µM
MKNK1 (human) = MKNK1 (human) (UniProt Q9BUB5); details: compound 100.0 µM
RPS6KA1 KD1 KD2 (human) = RPS6KA1 KD1 KD2 (human) (UniProt Q15418); details: compound 100.0 µM
Sequence of RPS6KA1 KD1 KD2 (human) (Q15418 whole entry, looked up): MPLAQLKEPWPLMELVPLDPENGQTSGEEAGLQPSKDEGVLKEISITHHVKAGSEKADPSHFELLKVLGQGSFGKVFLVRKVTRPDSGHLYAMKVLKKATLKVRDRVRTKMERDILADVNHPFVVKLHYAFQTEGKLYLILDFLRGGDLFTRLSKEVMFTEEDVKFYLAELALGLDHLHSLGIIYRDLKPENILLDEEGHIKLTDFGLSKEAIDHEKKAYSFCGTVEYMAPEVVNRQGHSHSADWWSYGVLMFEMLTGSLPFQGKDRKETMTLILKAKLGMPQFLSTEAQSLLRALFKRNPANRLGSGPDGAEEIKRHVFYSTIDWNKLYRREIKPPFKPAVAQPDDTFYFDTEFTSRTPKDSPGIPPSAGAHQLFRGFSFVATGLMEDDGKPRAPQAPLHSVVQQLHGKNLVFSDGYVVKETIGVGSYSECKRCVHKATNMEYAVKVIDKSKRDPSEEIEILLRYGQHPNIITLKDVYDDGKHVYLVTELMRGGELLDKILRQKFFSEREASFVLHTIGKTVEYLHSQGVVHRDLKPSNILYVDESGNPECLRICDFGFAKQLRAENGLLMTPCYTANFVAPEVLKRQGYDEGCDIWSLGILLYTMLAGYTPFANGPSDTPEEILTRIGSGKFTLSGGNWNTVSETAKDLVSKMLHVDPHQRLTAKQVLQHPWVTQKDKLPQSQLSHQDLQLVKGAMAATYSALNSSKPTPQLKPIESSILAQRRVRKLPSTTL

EEF2K (human) = EEF2K (human) (UniProt O00418); details: compound 100.0 µM
IKBKB (human) = IKBKB (human) (UniProt O14920); details: compound 100.0 µM
Sequence of IKBKB (human) (O14920 whole entry, looked up): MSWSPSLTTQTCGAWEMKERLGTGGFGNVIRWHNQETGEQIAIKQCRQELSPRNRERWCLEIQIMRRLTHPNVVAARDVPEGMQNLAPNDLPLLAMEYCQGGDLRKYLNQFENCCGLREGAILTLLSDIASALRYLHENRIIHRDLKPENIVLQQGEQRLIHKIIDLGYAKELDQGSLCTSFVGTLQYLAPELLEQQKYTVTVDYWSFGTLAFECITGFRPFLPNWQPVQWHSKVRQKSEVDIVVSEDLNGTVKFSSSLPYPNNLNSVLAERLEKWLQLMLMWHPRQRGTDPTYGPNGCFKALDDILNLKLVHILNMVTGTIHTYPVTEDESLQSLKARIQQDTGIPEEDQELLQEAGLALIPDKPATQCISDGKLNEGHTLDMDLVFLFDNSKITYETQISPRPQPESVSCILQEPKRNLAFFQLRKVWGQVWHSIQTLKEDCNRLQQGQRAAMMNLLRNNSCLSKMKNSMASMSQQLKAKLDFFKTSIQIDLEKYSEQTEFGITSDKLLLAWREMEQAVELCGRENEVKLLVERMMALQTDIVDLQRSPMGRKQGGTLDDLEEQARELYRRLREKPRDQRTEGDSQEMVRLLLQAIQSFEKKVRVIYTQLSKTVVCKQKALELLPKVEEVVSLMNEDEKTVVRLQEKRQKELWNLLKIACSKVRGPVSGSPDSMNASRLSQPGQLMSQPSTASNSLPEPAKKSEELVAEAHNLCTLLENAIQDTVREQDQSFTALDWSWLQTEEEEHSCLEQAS

PRKAA1 or PRKAA2 (rat) = details: compound 100.0 µM; accession and sequence are those of the human protein
MKNK2 (human) = MKNK2 (human) (UniProt Q9HBH9); details: compound 100.0 µM
AURKB (human) = AURKB (human) (UniProt Q96GD4); details: compound 100.0 µM
CSK (human) = CSK (human) (UniProt P41240); details: compound 100.0 µM
MAP2K2 (human) = MAP2K2 (human) (UniProt P36507); details: compound 100.0 µM
Sequence of MAP2K2 (human) (P36507 whole entry, looked up): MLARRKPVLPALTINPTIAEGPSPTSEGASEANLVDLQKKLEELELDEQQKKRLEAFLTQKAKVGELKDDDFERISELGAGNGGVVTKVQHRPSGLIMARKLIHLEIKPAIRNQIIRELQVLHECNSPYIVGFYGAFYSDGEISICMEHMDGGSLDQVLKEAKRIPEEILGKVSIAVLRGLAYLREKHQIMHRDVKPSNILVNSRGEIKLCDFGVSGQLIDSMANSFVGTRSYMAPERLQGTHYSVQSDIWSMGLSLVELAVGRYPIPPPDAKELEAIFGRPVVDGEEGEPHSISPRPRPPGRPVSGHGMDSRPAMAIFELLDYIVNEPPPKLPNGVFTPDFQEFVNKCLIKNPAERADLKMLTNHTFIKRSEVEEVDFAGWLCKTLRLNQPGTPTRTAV

LCK (mouse) = details: compound 100.0 µM; accession and sequence are those of the human protein
MAP3K9 (human) = MAP3K9 (human) (UniProt P80192); details: compound 100.0 µM
MAPK1 (human) = MAPK1 (human) (UniProt P28482); details: compound 100.0 µM
ROCK2 (rat) = details: compound 100.0 µM; accession and sequence are those of the human protein
ERBB4 (human) = ERBB4 (human) (UniProt Q15303); details: compound 100.0 µM
Sequence of ERBB4 (human) (Q15303 whole entry, looked up): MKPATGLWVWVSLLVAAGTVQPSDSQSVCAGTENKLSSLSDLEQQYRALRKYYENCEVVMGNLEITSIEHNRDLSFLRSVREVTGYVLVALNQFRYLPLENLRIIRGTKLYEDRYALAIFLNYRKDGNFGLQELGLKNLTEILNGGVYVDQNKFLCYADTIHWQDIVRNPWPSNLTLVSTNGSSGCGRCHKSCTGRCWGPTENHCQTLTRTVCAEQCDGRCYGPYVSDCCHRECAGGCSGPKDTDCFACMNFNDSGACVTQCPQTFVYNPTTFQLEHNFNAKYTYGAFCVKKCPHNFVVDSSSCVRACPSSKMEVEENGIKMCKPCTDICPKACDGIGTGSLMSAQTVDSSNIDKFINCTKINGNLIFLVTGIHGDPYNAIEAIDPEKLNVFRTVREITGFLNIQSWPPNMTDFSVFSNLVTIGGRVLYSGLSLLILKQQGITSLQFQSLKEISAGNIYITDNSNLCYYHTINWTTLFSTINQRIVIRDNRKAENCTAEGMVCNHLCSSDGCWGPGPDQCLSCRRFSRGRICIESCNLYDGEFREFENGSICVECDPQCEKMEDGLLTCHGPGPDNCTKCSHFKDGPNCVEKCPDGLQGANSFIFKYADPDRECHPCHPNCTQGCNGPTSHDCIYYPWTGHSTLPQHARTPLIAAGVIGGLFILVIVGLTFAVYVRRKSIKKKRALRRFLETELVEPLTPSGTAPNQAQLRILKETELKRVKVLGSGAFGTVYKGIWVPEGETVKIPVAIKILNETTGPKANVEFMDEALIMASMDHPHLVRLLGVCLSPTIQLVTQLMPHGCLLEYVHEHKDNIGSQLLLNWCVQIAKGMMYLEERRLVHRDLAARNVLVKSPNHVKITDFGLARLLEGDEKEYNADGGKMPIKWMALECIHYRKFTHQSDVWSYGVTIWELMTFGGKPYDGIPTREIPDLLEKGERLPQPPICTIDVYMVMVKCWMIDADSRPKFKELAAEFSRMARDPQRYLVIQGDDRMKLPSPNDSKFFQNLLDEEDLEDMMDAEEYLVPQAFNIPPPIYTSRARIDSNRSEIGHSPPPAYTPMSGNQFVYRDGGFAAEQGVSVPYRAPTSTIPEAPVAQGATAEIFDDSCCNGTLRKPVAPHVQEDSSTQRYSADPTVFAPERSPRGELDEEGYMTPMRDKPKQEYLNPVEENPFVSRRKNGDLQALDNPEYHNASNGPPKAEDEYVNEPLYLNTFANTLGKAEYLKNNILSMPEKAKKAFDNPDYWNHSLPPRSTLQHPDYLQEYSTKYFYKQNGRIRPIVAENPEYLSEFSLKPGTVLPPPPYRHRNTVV

MARK4 (human) = MARK4 (human) (UniProt Q96L34); details: compound 100.0 µM
INSRR (human) = INSRR (human) (UniProt P14616); details: compound 100.0 µM
DAPK1 (human) = DAPK1 (human) (UniProt P53355); details: compound 100.0 µM
[1] = target: STK11 CAB39 STRADA (human) (UniProt Q9Y376+Q7RTN6+Q15831); details: compound 100.0 µM
GSK3B (human) = GSK3B (human) (UniProt P49841); details: compound 100.0 µM
PRKACA (human) = PRKACA (human) (UniProt P17612); details: compound 100.0 µM
PRKCZ (human) = PRKCZ (human) (UniProt Q05513); details: compound 100.0 µM
PHKG1 (human) = PHKG1 (human) (UniProt Q16816); details: compound 100.0 µM
MAPKAPK3 (human) = MAPKAPK3 (human) (UniProt Q16644); details: compound 100.0 µM

Sequence of FGFR1 (human) (P11362 whole entry, looked up): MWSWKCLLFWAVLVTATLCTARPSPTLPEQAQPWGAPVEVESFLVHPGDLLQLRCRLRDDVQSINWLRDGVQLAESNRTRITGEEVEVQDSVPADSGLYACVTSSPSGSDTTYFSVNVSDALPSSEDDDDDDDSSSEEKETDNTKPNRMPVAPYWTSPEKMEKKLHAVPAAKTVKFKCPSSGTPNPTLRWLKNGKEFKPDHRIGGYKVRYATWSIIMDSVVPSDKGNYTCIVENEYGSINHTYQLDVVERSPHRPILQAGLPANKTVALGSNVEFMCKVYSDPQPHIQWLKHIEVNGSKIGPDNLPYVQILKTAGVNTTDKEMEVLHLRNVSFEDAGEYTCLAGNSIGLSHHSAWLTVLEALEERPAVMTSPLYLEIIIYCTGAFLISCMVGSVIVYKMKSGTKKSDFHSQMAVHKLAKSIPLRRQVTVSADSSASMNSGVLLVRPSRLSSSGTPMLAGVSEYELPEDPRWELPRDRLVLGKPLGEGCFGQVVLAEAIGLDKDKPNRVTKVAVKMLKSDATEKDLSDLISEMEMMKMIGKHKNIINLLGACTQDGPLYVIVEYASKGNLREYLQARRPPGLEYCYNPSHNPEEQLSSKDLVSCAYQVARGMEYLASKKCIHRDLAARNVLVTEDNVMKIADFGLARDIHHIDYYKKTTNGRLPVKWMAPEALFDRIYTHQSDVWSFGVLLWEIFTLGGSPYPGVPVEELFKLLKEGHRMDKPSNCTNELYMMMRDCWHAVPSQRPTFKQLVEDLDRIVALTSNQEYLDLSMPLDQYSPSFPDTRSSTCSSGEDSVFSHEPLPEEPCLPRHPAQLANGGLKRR

A residual activity (MINK1 (human)) of 62%, a residual activity (CHEK2 (human)) of 100% and a residual activity (FGFR1 (human)) of 59% were found for `Cc1cc(N=Nc2cc(S(=O)(=O)O)c(C)cc2C)c(N)cc1O` in this work. It also gave a residual activity (NTRK1 (human)) of 65%, a residual activity (CSNK2A1 (human)) of 51% and a residual activity (MAPK13 (human)) of 109%. It also gave a residual activity (EPHB3 (human)) of 48%, a residual activity (CDK2 CCNA2 (human)) of 94% and a residual activity (TTK (human)) of 90%. The residual activity (SRC (human)) was 40%, the residual activity (MYLK (human)) was 97% and the residual activity (MELK (human)) was 87%. The residual activity (MKNK1 (human)) was 99%, the residual activity (RPS6KA1 KD1 KD2 (human)) was 99% and the residual activity (EEF2K (human)) was 92%. The residual activity (IKBKB (human)) was 97%, the residual activity (PRKAA1 or PRKAA2 (rat)) was 71% and the residual activity (MKNK2 (human)) was 100%. For the same compound, the residual activity (AURKB (human)) was 93%, the residual activity (CSK (human)) was 132% and the residual activity (MAP2K2 (human)) was 109%. It also gave a residual activity (LCK (mouse)) of 112%, a residual activity (MAP3K9 (human)) of 58% and a residual activity (MAPK1 (human)) of 134%. For the same compound, the residual activity (ROCK2 (rat)) was 105%, the residual activity (ERBB4 (human)) was 99% and the residual activity (MARK4 (human)) was 81%. The residual activity (INSRR (human)) was 103%, the residual activity (DAPK1 (human)) was 82% and the residual activity [1] was 126%. For the same compound, the residual activity (GSK3B (human)) was 31%, the residual activity (PRKACA (human)) was 90% and the residual activity (PRKCZ (human)) was 97%. The residual activity (PHKG1 (human)) was 86% and the residual activity (MAPKAPK3 (human)) was 62%.
